Test results taken from patent US20230225990A1, “DIMETHYL SULFONE FOR TREATMENT OF CHRONICALLY HEAT STRESSED POULTRY” (Evonik Operations GmbH, priority 2020, published 2023).
Marks after values point to notes of the source that are not given here.

Experiments:
Type in all cases: in vivo, broiler chickens (Ross 308)
[1] = system: male broilers subjected to chronic cyclic heat stress; experiment: Carcass yield and portions on d-40; settings: d-40 after overnight fasting
Text: Sampling of two birds per pen (with weight close to average weight of the pen) on d-40 after overnight fasting (no heat stress that day) • Carcass yield, breast percentage, thigh percentage, drumstick percentage and abdominal fat • Carcass yield: with skin, bled, without internal organs, without feet, without head, without neck, without abdominal fat; relative to bird body weight • Breast percentage: skinless, boneless; relative to bird body weight • Thigh percentage: with skin, with bone; relative to bird body weight • Drumstick percentage: with skin, with bone; relative to bird body weight • Abdominal fat percentage: abdominal fat; relative to bird body weight • Breast meat quality • Scoring of breast myopathies (wooden breast and white striping) • Wooden breast: normal, 0; mild, 1 and severe, 2 • White striations: normal, 0; mild, 1, and severe, 2 • pH and colour, both at time 0 h and 24 h (after sampling at time 0 h, breasts are stored at 4° C. until 24 h) • Drip loss, determined for periods 0-24 h and for period 0-72 h (after sampling at time 0 h, breasts are stored at 4° C. until 72 h, and weight without exuded water at 24 h and 72 h) • Press loss, determined at 24 h (after sampling at time 0 h, breasts are stored at 4° C. until 24 h, prior to determine press loss) • Oxidative stability (TBARS after simulated retail display)

[2] = system: male broilers subjected to chronic cyclic heat stress; experiment: Parameters in liver of birds sampled at d-23, d-25 and d-39
Procedure: (§1) Sampling of one bird per pen (with weight close to average weight of the pen) on d-23, d-25 and on d-39 (on d-25 and d-39, sampling starts after >3 h of heat stress that day; 108 birds in total) • malondialdehyde, HSP70 (Chicken Heat Shock Protein 70, Hsp-70 ELISA Kit) Cusabio Code CSB-E11196Ch), HSP90 (Chicken Heat Shock Protein 90, HSP-90 ELISA Kit; Cusabio Code CSB-E12873C), GPx, SOD in plasma; GSH/GSSG in erythrocytes; and T3, T4 and nitric oxide in serum • Breast muscle and liver: malondialdehyde, AOX (GPx, SOD), GSH/GSSG
(§2) For physiological measurements, time of sampling (representing the number of minutes between the beginning of heat stress and the precise moment of sampling of the bird that day), if appropriate, was included in the model as a covariable if significant as well. Orthogonal contrasts were applied to test for linear and quadratic effects upon incremental levels of DMS supplementation in the diet. Means are given as estimated marginal means (least square means). Means were separated using the Tukey post-hoc test. Differences were considered significant when p<0.05 and as a trend for significance when p<0.1.

[3] = system: male broilers subjected to chronic cyclic heat stress; experiment: Parameters in breast muscle of birds sampled at d-23, d-25 and d-39
Procedure: as §1, §2

CS(C)(=O)=O [DMS, dimethyl sulfone]
Body weight ([1]; 0.1% DMS in diet (T2)): 3010 g
Body weight ([1]; 0.2% DMS in diet (T3)): 2980 g
GSSG/GSH ([2]; 0.1% DMS in diet (T2), d-23): 0.016
Glutathione (GSH) ([2]; 0.1% DMS in diet (T2), d-23): 4.69 µmol/g
Glutathione peroxidase ([2]; 0.1% DMS in diet (T2), d-23): 17.0 U/g
Malondialdehyde ([2]; 0.1% DMS in diet (T2), d-23): 43.9 nmol/g
Oxidized glutathione (GSSG) ([2]; 0.1% DMS in diet (T2), d-23): 0.077 µmol/g
Super oxide dismutase ([2]; 0.1% DMS in diet (T2), d-23): 332 U/g
GSSG/GSH ([2]; 0.1% DMS in diet (T2), d-25): 0.017
Glutathione (GSH) ([2]; 0.1% DMS in diet (T2), d-25): 4.26 µmol/g
Glutathione peroxidase ([2]; 0.1% DMS in diet (T2), d-25): 17.8 U/g
Malondialdehyde ([2]; 0.1% DMS in diet (T2), d-25): 48.6 nmol/g
Oxidized glutathione (GSSG) ([2]; 0.1% DMS in diet (T2), d-25): 0.070 µmol/g
Super oxide dismutase ([2]; 0.1% DMS in diet (T2), d-25): 292 U/g
GSSG/GSH ([2]; 0.1% DMS in diet (T2), d-39): 0.027
Glutathione (GSH) ([2]; 0.1% DMS in diet (T2), d-39): 3.74 µmol/g
Glutathione peroxidase ([2]; 0.1% DMS in diet (T2), d-39): 17.5 U/g
Malondialdehyde ([2]; 0.1% DMS in diet (T2), d-39): 46.4 nmol/g
Oxidized glutathione (GSSG) ([2]; 0.1% DMS in diet (T2), d-39): 0.093 µmol/g
Super oxide dismutase ([2]; 0.1% DMS in diet (T2), d-39): 356 U/g
GSSG/GSH ([2]; 0.2% DMS in diet (T3), d-23): 0.015
Glutathione (GSH) ([2]; 0.2% DMS in diet (T3), d-23): 5.04 µmol/g
Glutathione peroxidase ([2]; 0.2% DMS in diet (T3), d-23): 16.9 U/g
Malondialdehyde ([2]; 0.2% DMS in diet (T3), d-23): 44.6 nmol/g
Oxidized glutathione (GSSG) ([2]; 0.2% DMS in diet (T3), d-23): 0.076 µmol/g
Super oxide dismutase ([2]; 0.2% DMS in diet (T3), d-23): 317 U/g
GSSG/GSH ([2]; 0.2% DMS in diet (T3), d-25): 0.017
Glutathione (GSH) ([2]; 0.2% DMS in diet (T3), d-25): 4.14 µmol/g
Glutathione peroxidase ([2]; 0.2% DMS in diet (T3), d-25): 17.9 U/g
Malondialdehyde ([2]; 0.2% DMS in diet (T3), d-25): 49.1 nmol/g
Oxidized glutathione (GSSG) ([2]; 0.2% DMS in diet (T3), d-25): 0.069 µmol/g
Super oxide dismutase ([2]; 0.2% DMS in diet (T3), d-25): 289 U/g
GSSG/GSH ([2]; 0.2% DMS in diet (T3), d-39): 0.025
Glutathione (GSH) ([2]; 0.2% DMS in diet (T3), d-39): 3.94 µmol/g
Glutathione peroxidase ([2]; 0.2% DMS in diet (T3), d-39): 18.6 U/g
Malondialdehyde ([2]; 0.2% DMS in diet (T3), d-39): 48 nmol/g
Oxidized glutathione (GSSG) ([2]; 0.2% DMS in diet (T3), d-39): 0.097 µmol/g
Super oxide dismutase ([2]; 0.2% DMS in diet (T3), d-39): 346 U/g
Glutathione (GSH) ([3]; 0.1% DMS in diet (T2), d-23): 1.00 µmol/g
Glutathione peroxidase ([3]; 0.1% DMS in diet (T2), d-23): 0.39 U/g
Malondialdehyde ([3]; 0.1% DMS in diet (T2), d-23): 4.72 nmol/g
Super oxide dismutase ([3]; 0.1% DMS in diet (T2), d-23): 29.7 U/g
Glutathione (GSH) ([3]; 0.1% DMS in diet (T2), d-25): 1.30^ab μmol/g
Glutathione peroxidase ([3]; 0.1% DMS in diet (T2), d-25): 0.42 U/g
Malondialdehyde ([3]; 0.1% DMS in diet (T2), d-25): 4.6 nmol/g
Super oxide dismutase ([3]; 0.1% DMS in diet (T2), d-25): 27.3 U/g
Glutathione (GSH) ([3]; 0.1% DMS in diet (T2), d-39): 1.46 µmol/g
Glutathione peroxidase ([3]; 0.1% DMS in diet (T2), d-39): 0.46 U/g
Malondialdehyde ([3]; 0.1% DMS in diet (T2), d-39): 5.23 nmol/g
Super oxide dismutase ([3]; 0.1% DMS in diet (T2), d-39): 27.4 U/g
Glutathione (GSH) ([3]; 0.2% DMS in diet (T3), d-23): 1.10 µmol/g
Glutathione peroxidase ([3]; 0.2% DMS in diet (T3), d-23): 0.38 U/g
Malondialdehyde ([3]; 0.2% DMS in diet (T3), d-23): 4.5 nmol/g
Super oxide dismutase ([3]; 0.2% DMS in diet (T3), d-23): 32.6 U/g
Glutathione (GSH) ([3]; 0.2% DMS in diet (T3), d-25): 1.39^a μmol/g
Glutathione peroxidase ([3]; 0.2% DMS in diet (T3), d-25): 0.44 U/g
Malondialdehyde ([3]; 0.2% DMS in diet (T3), d-25): 4.5 nmol/g
Super oxide dismutase ([3]; 0.2% DMS in diet (T3), d-25): 28.1 U/g
Glutathione (GSH) ([3]; 0.2% DMS in diet (T3), d-39): 1.56 µmol/g
Glutathione peroxidase ([3]; 0.2% DMS in diet (T3), d-39): 0.50 U/g
Malondialdehyde ([3]; 0.2% DMS in diet (T3), d-39): 5.57 nmol/g
Super oxide dismutase ([3]; 0.2% DMS in diet (T3), d-39): 26.2 U/g
